Experimental data reported in ChEMBL document CHEMBL5241104, “Reactive metabolites of the anticonvulsant drugs and approaches to minimize the adverse drug reaction” (Eur J Med Chem, 2021).

Key:
[1] = Protective index, ratio of TD50 for toxicity in Sprague-Dawley rat assessed as median toxicity dose at po administration upto 4 hrs by rotorod test to ED50 for anticonvulsant activity in Sprague-Dawley rat assessed as protection against maximal electroshock induced seizure at po administration upto 4 hrs; assay type: organism-based; conditions: in vivo, read-out: Ratio TD50/ED50
[2] = Toxicity in Sprague-Dawley rat assessed as median toxic dose at po administrated upto 4 hrs by rotorod test; assay type: organism-based; conditions: in vivo
Mus musculus [3] = experiment: Anticonvulsant activity in mouse assessed as protection against 6-Hz induced seizure at ip administration upto 2 hrs; assay type: functional
Rattus norvegicus [4] = experiment: Anticonvulsant activity in rat brain assessed as increase in GABA level at 100 mg/kg,ip administrated for 2 hrs by spectrophotometric method; assay type: functional
[5] = Hepatotoxicity in rat assessed as total protein level at 100 mg/kg,ip administrated for 2 hrs by spectrophotometric method; assay type: toxicity, organism-based; conditions: in vivo
[6] = Hepatotoxicity in rat assessed as total albumin level at 100 mg/kg,ip administrated for 2 hrs by spectrophotometric method; assay type: toxicity, organism-based; conditions: in vivo
Mus musculus [7] = experiment: Anticonvulsant activity in Albino Swiss CD-1 mouse assessed as protection against Sc-Met induced seizure at 100 mg/kg,ip administration; assay type: functional
Mus musculus [8] = experiment: Anticonvulsant activity in Albino Swiss CD-1 mouse assessed as protection against maximal electroshock induced seizure at 100 mg/kg,ip administration; assay type: functional
Rattus norvegicus [9] = experiment: Anticonvulsant activity in Sprague-Dawley rat assessed as protection against maximal electroshock induced seizure at po administrated for 30 mins; assay type: functional; conditions: 0.5 h
Rattus norvegicus [10] = experiment: Anticonvulsant activity in Sprague-Dawley rat assessed as protection against Sc-Met induced seizure at po administrated for 30 mins; assay type: functional; conditions: 0.5 h
[11] = Protective index, ratio of TD50 for toxicity in Sprague-Dawley rat at po administration to ED50 for anticonvulsant activity in Sprague-Dawley rat assessed as protection against pilocarpine induced epilepticus at po administration; assay type: organism-based; conditions: in vivo, read-out: Ratio TD50/ED50
Mus musculus [12] = experiment: Anticonvulsant activity in Albino mouse assessed as protection against Sc-metrazol induced seizure at ip administration; assay type: functional
Mus musculus [13] = experiment: Anticonvulsant activity in Albino mouse assessed as protection against maximal electroshock induced seizure at ip administration; assay type: functional
Rattus norvegicus [14] = experiment: Anticonvulsant activity in Sprague-Dawley rat assessed as protection against pilocarpine induced epilepticus at po administration; assay type: functional
Rattus norvegicus [15] = experiment: Anticonvulsant activity in Sprague-Dawley rat assessed as protection against Sc-metrazol induced seizure at po administration; assay type: functional
Mus musculus [16] = experiment: Anticonvulsant activity in Albino mouse assessed as protection against 6-Hz psychomotor induced seizure at ip administration; assay type: functional
[17] = Neurotoxicity in Sprague-Dawley rat assessed as median toxic dose at ip administration; assay type: toxicity, organism-based; conditions: in vivo
[18] = Displacement of 3[H]BTX from rat brain membrane voltage-sensitive sodium channel incubated for 1.5 hrs by scintillation counting analysis; assay type: cell membranes
Rattus norvegicus [19] = experiment: Anticonvulsant activity in Wistar rat assessed as protection against maximal electroshock induced seizure at po administration for 2 hrs; assay type: functional
[20] = Protective index, ratio of TD50 for toxicity in Wistar rat assessed as median toxicity dose at po administration for 8 hrs by rotorod test to ED50 for anticonvulsant activity in Wistar rat assessed as protection against maximal electroshock induced seizure at po administration for 8 hrs; assay type: organism-based; conditions: in vivo, read-out: Ratio TD50/ED50
[21] = Protective index, ratio of TD50 for toxicity in Wistar rat assessed as median toxicity dose at po administration for 4 hrs by rotorod test to ED50 for anticonvulsant activity in Wistar rat assessed as protection against maximal electroshock induced seizure at po administration for 4 hrs; assay type: organism-based; conditions: in vivo, read-out: Ratio TD50/ED50
[22] = Protective index, ratio of TD50 for toxicity in Wistar rat assessed as median toxicity dose at po administration for 2 hrs by rotorod test to ED50 for anticonvulsant activity in Wistar rat assessed as protection against maximal electroshock induced seizure at po administration for 2 hrs; assay type: organism-based; conditions: in vivo, read-out: Ratio TD50/ED50
Rattus norvegicus [23] = experiment: Anticonvulsant activity in Wistar rat assessed as protection against maximal electroshock induced seizure at po administration for 8 hrs; assay type: functional
Rattus norvegicus [24] = experiment: Anticonvulsant activity in Wistar rat assessed as protection against maximal electroshock induced seizure at po administration for 4 hrs; assay type: functional
Mus musculus [25] = experiment: Anticonvulsant activity in Swiss mouse assessed as protection against Sc-PTZ induced seizure at ip administration; assay type: functional
[26] = Toxicity in 3-MP induced Swiss mouse seizure model assessed as death at 50 mg/kg,ip administration for 30 mins; assay type: organism-based; conditions: in vivo, read-out: Activity
Mus musculus [27] = experiment: Anticonvulsant activity against bicuculline induced Swiss mouse seizure model assessed as inhibition of clonic seizures at 50 mg/kg,ip administration for 30 mins; assay type: functional; conditions: 0.5 h
[28] = Neurotoxicity in Swiss mouse assessed as median toxicity dose at ip administration by rotorod test; assay type: organism-based; conditions: in vivo
Mus musculus [29] = experiment: Anticonvulsant activity against 3-MP induced Swiss mouse seizure model assessed as inhibition of tonic seizures at 50 mg/kg,ip administration for 30 mins; assay type: functional; conditions: 0.5 h
[30] = Toxicity in bicuculline induced Swiss mouse seizure model assessed as death at 50 mg/kg,ip administration for 30 mins; assay type: organism-based; conditions: in vivo, read-out: Activity
Mus musculus [31] = experiment: Anticonvulsant activity against 3-MP induced Swiss mouse seizure model assessed as inhibition of clonic seizures at 50 mg/kg,ip administration for 30 mins; assay type: functional; conditions: 0.5 h
Mus musculus [32] = experiment: Anticonvulsant activity against bicuculline induced Swiss mouse seizure model assessed as inhibition of tonic seizures at 50 mg/kg,ip administration for 30 mins; assay type: functional; conditions: 0.5 h
Mus musculus [33] = experiment: Anticonvulsant activity in CD-1 mouse assessed as protection against Sc-Met induced seizure at ip administrated for 30 mins; assay type: functional; conditions: CD-1, 0.5 h
[34] = Toxicity in CD-1 mouse assessed as median toxicity dose at ip administration for 30 mins by rotorod test; assay type: organism-based; conditions: in vivo
Mus musculus [35] = experiment: Anticonvulsant activity in CD-1 mouse assessed as protection against maximal electroshock induced seizure at ip administrated for 30 mins; assay type: functional; conditions: CD-1, 0.5 h

Question: Which selectivity ratio at 4 h [1] does the source give for `CCOC(=O)C1C(=O)C=C(Nc2cc(C)on2)CC1C` (stereo not given) here?
Answer: > 49.6

Question: And the TD50 at 4 h [2]?
Answer: > 500 mg/kg

Question: Which ED50 (Mus musculus [3]) does the source give for `CCCC(COC(=O)Nc1ccc(S(N)(=O)=O)cc1)C(C)CC` (stereo not given) here?
Answer: 74 mg/kg

Question: Which results are given for `Nc1ccc(Cl)cc1-c1n[nH]c(=O)n(-c2ccc(O)cc2)c1=O`?
Answer: Activity (Rattus norvegicus [4]): 87.4 mg; Activity [5]: 4.78 g/dL; Activity [6]: 1.61 g/dL

Question: For `Cl.Cl.O=C1CC(c2ccccc2)(c2ccccc2)CN1CN1CCN(c2ccccc2)CC1`, which Activity (Mus musculus [7]) is on record?
Answer: 25%

Question: And the Activity (Mus musculus [8])?
Answer: 25%

Question: For `Cc1cc(C(=O)Nc2c(C)cccc2C)no1`, which ED50 (Rattus norvegicus [9]) is on record?
Answer: 5.5 mg/kg

Question: What about the ED50 (Rattus norvegicus [10]) of the same molecule?
Answer: > 250 mg/kg

Question: Which selectivity ratio [11] does the source give for `CCCC(CC)C(=O)NOC` (stereo not given) here?
Answer: > 5.5

Question: And the ED50 (Mus musculus [12])?
Answer: 70 mg/kg

Question: And the ED50 (Mus musculus [13])?
Answer: 142 mg/kg

Question: And the ED50 (Rattus norvegicus [14])?
Answer: 200 mg/kg

Question: And the ED50 (Rattus norvegicus [15])?
Answer: 36 mg/kg

Question: What about the ED50 (Mus musculus [16]) of the same molecule?
Answer: 50 mg/kg

Question: What about the TD50 [17] of the same molecule?
Answer: 118 mg/kg

Question: For `NC(=O)N1c2ccccc2C/C(=N/O)c2ccccc21`, which IC50 [18] is on record?
Answer: 418 µM

Question: And the ED50 (Rattus norvegicus [19])?
Answer: 12 mg/kg

Question: And the selectivity ratio at 8 h [20]?
Answer: > 117

Question: And the selectivity ratio at 4 h [21]?
Answer: > 100

Question: What about the selectivity ratio at 2 h [22] of the same molecule?
Answer: > 166

Question: And the ED50 (Rattus norvegicus [23])?
Answer: 17 mg/kg

Question: What about the ED50 (Rattus norvegicus [24]) of the same molecule?
Answer: 20 mg/kg

Question: What does the source list for `CN1C(=O)CC(=O)N(C)c2cc(NCc3ccc(F)cc3)ccc21`?
Answer: ED50 (Mus musculus [25]): 68 mg/kg; mortality at 0.5 h [26]: 20%; inhibition in vivo at 50 mg/kg (Mus musculus [27]): 80%; TD50 [28]: 164 mg/kg; inhibition in vivo at 50 mg/kg (Mus musculus [29]): 80%; mortality at 0.5 h [30]: 70%; inhibition in vivo at 50 mg/kg (Mus musculus [31]): 100%; inhibition in vivo at 50 mg/kg (Mus musculus [32]): 100%

Question: What does the source list for `Cc1cccc(C)c1NC(=O)c1cc(CO)on1`?
Answer: ED50 (Mus musculus [33]): > 30 mg/kg; TD50 at 0.5 h [34]: 28.5 mg/kg; ED50 (Mus musculus [35]): 8.7 mg/kg
